Reference: US10633383B2, “Compounds for the treatment, alleviation or prevention of disorders associated with Tau aggregates” (AC Immune SA, priority 2018, dated 2020)

Assays:
[1] = target: T1, recombinant full-length (fl)Tau (human Tau 2N4R) aggregates (Homo sapiens, UniProt P10636); assay: Full-length Tau (flTau) disaggregation assay by Thioflavin T (ThT); type: biochemical; details: 2 μM flTau aggregates, 30 minutes at RT, ThT fluorescence
T1 construct: 35 μM of recombinant full-length (fl)Tau in PBS were aggregated; made in house; host or cells: bacteria
Protocol: Full-Length Tau (flTau) Disaggregation Assay by Thioflavin T (ThT)
(§1) The longest isoform of human Tau (2N4R; 441 amino acids) was expressed in bacteria and purified. For the Tau disaggregation assay by ThT, 35 μM of recombinant full-length (fl)Tau in PBS were aggregated for 24 hours at 37° C. in presence of 50 μM of heparin (Sigma-Aldrich) and 10 mM of DTT (Sigma-Aldrich) under shaking at 750 RPM. Compounds were dissolved in anhydrous dimethyl sulfoxide (DMSO, Sigma-Aldrich) to reach a concentration of 10 mM. flTau aggregates and serial dilutions of compounds were mixed together in PBS (volume 50 μL) to a final concentration of 2 μM of flTau aggregates and from 160 to 0.04 μM of compounds. The mixture was incubated for 30 minutes at room temperature (RT), then 40 μL of this mixture were transferred into a black 384-well plate assay (Perkin-Elmer) and mixed with 10 μL of 100 μM ThT in 250 mM glycine (both from Sigma-Aldrich) in PBS. Fluorescence (relative fluorescence units; RFU) was measured in monoplicate or duplicate on a Tecan reader (excitation: 440 nm; emission: 485 nm). Percentage of flTau disaggregation was then calculated and the half maximal effective concentration (EC50) was determined using GraphPad Prism version 5 (GraphPad Software) assuming a one-binding site fitting model.

[2] = test system: human neuroblastoma cell line overexpressing the full-length form of human Tau carrying the P301L mutation; assay: Reduction of intracellular Tau aggregation (AlphaLISA); type: cell-based; details: compound at 5 μM, 24 h, aggregated Tau normalized to total Tau, relative to DMSO-treated cells
Protocol: Reduction of Intracellular Tau Aggregation
A human neuroblastoma cell line overexpressing the full-length form of human Tau carrying the P301L mutation was cultured in complete medium [DMEM-F12 4.5 g/L Glutamax (Invitrogen), 15% FBS (Biochrom), 1% Peni/Strep (Invitrogen) supplemented with 2.5 μg/ml of G418 (Sigma-Aldrich) selection antibiotic]. The day before the experiment 5×10^5 cells/well were plated in a 6 well plate in 3 mL of complete medium. The next day, cells were incubated with DMSO or a compound of the present invention at a 5 μM for additional 24 h at 37° C. After incubation, cells were trypsinized, resuspended in 100 μl of homogenization buffer [25 mM Tris-HCl pH 7.4, 150 mM NaCl, 1 mM EDTA, 1 mM EGTA containing phosphatase inhibitors (30 mM NaF, 0.2 mM Na3VO4, 1 nM Okadaic acid, 1 mM PMSF, 5 mM Na4P2O7) and protease inhibitor cocktail (Complete™, Roche)], and then physically lysed with three rapid cycles of freezing and thawing. Samples were then directly tested in the AlphaLISA assay. Phosphorylated, aggregated, and total Tau were quantified by AlphaLisa using the following antibody pairs: • HT7-Acceptor beads+biotin (BT)-Tau13-Donor beads: Total Tau • HT7-Acceptor beads+biotin (BT)-HT7-Donor beads: Aggregated human Tau
The Tau13 (Abcam) was biotinylated using EZ-Link® NHS-PEO Solid Phase biotinylation kit (Thermo Scientific), while the HT7-biotin was from a commercial source (Thermo Scientific).
For each antibody pairs the concentration of acceptor beads and biotinylated antibodies was optimized. All samples were first tested in a dilution series in PBS in order to identify the linear range and optimal dilution for each sample and assay. For the final protocol, the following reagents were added in a 384-well white OptiPlate (PerkinElmer): • 5 μL of test diluted sample • 20 μL of the mixture biotin-mAb acceptor beads at the following final concentrations: • HT7-BT at 1.25 nM in combination with HT7-Acc beads at 10 μg/ml • Tau13-BT at 5 nM in combination with HT7-Acc beads at 2.5 μg/ml
After incubation of this mixture at room temperature for 1 h, 25 μL of Streptavidin Donor beads (Perkin Elmer) at 25 μg/mL were added in the dark. Plates were analyzed after 30 min incubation using the EnSpire Alpha instrument and EnSpire Workstation version 3.00. Data for aggregated Tau were normalized to total Tau and then expressed as percentage of the DMSO-treated cells.

[3] = target: T2, Tau K18 fragment (amino acids 244 to 372 of human Tau441) aggregates (Homo sapiens, UniProt P10636); assay: Tau K18 disaggregation assay by ThT; type: biochemical; details: 2 μM K18 aggregates, 30 minutes at RT, ThT fluorescence
T2 construct: encompassing amino acids 244 to 372 of the longest isoform (2N4R) of human Tau441; host or cells: bacteria
Protocol: Tau K18 Disaggregation Assay by ThT
as §1, with “Compounds” for “The longest isoform of human Tau (2N4R; 441 amino acids) was expressed in bacteria and purified. For the Tau disaggregation assay by ThT, 35 μM of recombinant full-length (fl)Tau in PBS were aggregated for 24 hours at 37° C. in presence of 50 μM of heparin (Sigma-Aldrich) and 10 mM of DTT (Sigma-Aldrich) under shaking at 750 RPM. Compounds”, “K18” for “flTau”, “and” for “and the”

T2 sequence (P10636 561-689): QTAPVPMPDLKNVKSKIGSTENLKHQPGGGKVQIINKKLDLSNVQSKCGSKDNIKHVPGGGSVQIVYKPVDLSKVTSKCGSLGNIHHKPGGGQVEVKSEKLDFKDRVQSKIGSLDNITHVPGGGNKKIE
T1 sequence (P10636 1-441 isoform P10636-8): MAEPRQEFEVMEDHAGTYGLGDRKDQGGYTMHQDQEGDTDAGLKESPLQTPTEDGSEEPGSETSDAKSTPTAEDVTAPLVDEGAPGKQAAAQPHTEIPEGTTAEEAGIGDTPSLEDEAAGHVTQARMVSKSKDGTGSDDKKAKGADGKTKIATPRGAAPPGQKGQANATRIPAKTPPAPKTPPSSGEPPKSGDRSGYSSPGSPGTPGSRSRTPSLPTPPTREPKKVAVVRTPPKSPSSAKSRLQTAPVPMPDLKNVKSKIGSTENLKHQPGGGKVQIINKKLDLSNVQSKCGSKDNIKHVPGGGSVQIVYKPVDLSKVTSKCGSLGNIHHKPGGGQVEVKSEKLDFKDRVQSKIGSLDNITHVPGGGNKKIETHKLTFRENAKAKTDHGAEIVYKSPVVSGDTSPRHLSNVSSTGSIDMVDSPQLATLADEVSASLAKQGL

| SMILES | EC50 [1] | EC50 [3] | inhibition at 5 µM [2] |
| --- | --- | --- | --- |
| Fc1ccc2c3c([nH]c2c1)CCN(c1ccn2nc(N4CCOCC4)nc2c1)C3 [Example 70] | – | < 10 µM | 25 to 50% |
| Fc1cccc2[nH]c3c(c12)CN(c1ccc2sc(N4CCOCC4)nc2c1)CC3 [Example 52] | < 10 µM | – | 10 to 25% |
| Fc1ccc2c3c([nH]c2c1)CCN(c1ccc2oc(N4CCOCC4)nc2c1)C3 [Example 45, 5-(7-fluoro-1,3,4,5-tetrahydropyrido[4,3-b]indol-2-yl)-2-morpholino-1,3-benzoxazole] | < 10 µM | < 10 µM | > 50% |
| Fc1ccc2[nH]c3c(c2c1)CN(c1ccc2nc(N4CCOCC4)sc2c1)CC3 [Example 6] | – | < 10 µM | 25 to 50% |

The next lines start with results.

| EC50 [1] | EC50 [3] | SMILES | inhibition at 5 µM [2] |
| --- | --- | --- | --- |
| < 10 µM | – | Cn1c2c(c3ccc(F)cc31)CN(c1ccc3nc(N4CCOCC4)sc3c1)CC2 [Example 64] | 10 to 25% |
| < 10 µM | – | CN(C)c1nc2cc(N3CCc4[nH]c5cc(F)ccc5c4C3)ccc2s1 [Example 69] | > 50% |
| < 10 µM | – | CN(C)c1nc2ccc(N3CCc4[nH]c5cc(F)ccc5c4C3)cc2o1 [Example 55] | 10 to 25% |
| < 10 µM | – | COc1ccc2[nH]c3c(c2c1)CN(c1ccc2nc(N4CCOCC4)sc2c1)CC3 [Example 19] | 25 to 50% |
